Measured values from ChEMBL document CHEMBL1201862, “PubChem BioAssay data set” (2004).
Where a name gives a salt, the structure may show the parent alone.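 Grown in 96-well plates, cells were treated for 48 hours with each compound at five concentrations. Insufficient inhibition: endpoint recorded as highest concentration tested. GI50 marks 50% less growth.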 Calls of active or inactive are those of the source. No stated cut-off is given here; in the data, active = GI50 up to about 1.1 µM and inactive = higher.

What was measured:
Assay in all cases: NCI-60 cell line screen, 48 h
HCC 2998 = system: HCC 2998
A498 = system: A498
OVCAR-3 = system: OVCAR-3
HOP-92 = system: HOP-92
ACHN = system: ACHN
U-251 = system: U-251
DU-145 = system: DU-145
SK-MEL-28 = system: SK-MEL-28
Malme-3M = system: Malme-3M
M14 = system: M14
COLO 205 = system: COLO 205
MCF7 = system: MCF7
NCI/ADR-RES = system: NCI/ADR-RES
786-0 = system: 786-0
IGROV-1 = system: IGROV-1
OVCAR-4 = system: OVCAR-4
TK-10 = system: TK-10
LOX IMVI = system: LOX IMVI
SW-620 = system: SW-620
NCI-H522 = system: NCI-H522
A549 = system: A549
HCT-116 = system: HCT-116
BT-549 = system: BT-549
NCI-H460 = system: NCI-H460
MDA-MB-435 = system: MDA-MB-435
SF-539 = system: SF-539
UACC-62 = system: UACC-62
RXF 393 = system: RXF 393
SK-OV-3 = system: SK-OV-3
KM12 = system: KM12
SK-MEL-2 = system: SK-MEL-2
K562 = system: K562
SNB-75 = system: SNB-75
MOLT-4 = system: MOLT-4
SR = system: SR
EKVX = system: EKVX
UACC-257 = system: UACC-257
UO-31 = system: UO-31
OVCAR-5 = system: OVCAR-5
SF-268 = system: SF-268
OVCAR-8 = system: OVCAR-8
CAKI-1 = system: CAKI-1
NCI-H226 = system: NCI-H226
HOP-62 = system: HOP-62
HT-29 = system: HT-29
MDA-MB-231 = system: MDA-MB-231
T47D = system: T47D
NCI-H23 = system: NCI-H23
HL-60 = system: HL-60
PC-3 = system: PC-3
SK-MEL-5 = system: SK-MEL-5
SF-295 = system: SF-295
SNB-19 = system: SNB-19
HCT-15 = system: HCT-15
Hs-578T = system: Hs-578T
RPMI-8226 = system: RPMI-8226
CCRF-CEM = system: CCRF-CEM
MDA-N = system: MDA-N
SN12C = system: SN12C

Measured: GI50

NCCCCNCCCN [SPERMIDINE TRIHYDROCHLORIDE]
inactive: HCC 2998 > 100 µM | A498 > 100 µM | OVCAR-3 > 100 µM | HOP-92 > 100 µM | ACHN > 100 µM | U-251 > 100 µM | DU-145 > 100 µM | SK-MEL-28 > 100 µM | Malme-3M > 100 µM | M14 > 100 µM | COLO 205 > 100 µM | MCF7 72.8 µM | NCI/ADR-RES > 100 µM | 786-0 > 100 µM | IGROV-1 > 100 µM | OVCAR-4 16.7 µM | TK-10 > 100 µM | LOX IMVI > 100 µM | SW-620 > 100 µM | NCI-H522 97.1 µM | A549 > 100 µM | HCT-116 > 100 µM | BT-549 > 100 µM | NCI-H460 > 100 µM | MDA-MB-435 27.4 µM | SF-539 > 100 µM | UACC-62 > 100 µM | RXF 393 > 100 µM | SK-OV-3 > 100 µM | KM12 > 100 µM | SK-MEL-2 > 100 µM | K562 67.8 µM | SNB-75 > 100 µM | MOLT-4 51.3 µM | SR > 100 µM | EKVX > 100 µM | UACC-257 > 100 µM | UO-31 > 100 µM | OVCAR-5 > 100 µM | SF-268 > 100 µM | OVCAR-8 > 100 µM | CAKI-1 1.71 µM | NCI-H226 > 100 µM | HOP-62 > 100 µM | HT-29 > 100 µM | MDA-MB-231 > 100 µM | T47D > 100 µM | NCI-H23 > 100 µM | HL-60 > 100 µM | PC-3 > 100 µM | SK-MEL-5 > 100 µM | SF-295 > 100 µM | SNB-19 > 100 µM
> 100 µM: HCT-15

O=C1c2cc3c(cc2CC12Cc1cc4c(cc1C2=O)CCC4)CCCC3 (stereo not drawn)
inactive: HCC 2998 > 100 µM | A498 > 100 µM | OVCAR-3 > 100 µM | HOP-92 > 100 µM | ACHN > 100 µM | U-251 89.1 µM | Hs-578T > 100 µM | DU-145 > 100 µM | SK-MEL-28 > 100 µM | Malme-3M 59.4 µM | M14 > 100 µM | MCF7 > 100 µM | NCI/ADR-RES > 100 µM | 786-0 76 µM | IGROV-1 > 100 µM | OVCAR-4 > 100 µM | TK-10 > 100 µM | LOX IMVI > 100 µM | SW-620 > 100 µM | NCI-H522 > 100 µM | A549 > 100 µM | HCT-116 > 100 µM | NCI-H460 > 100 µM | MDA-MB-435 > 100 µM | SF-539 > 100 µM | RXF 393 > 100 µM | RPMI-8226 > 100 µM | SK-OV-3 > 100 µM | SK-MEL-2 > 100 µM | K562 > 100 µM | CCRF-CEM > 100 µM | SNB-75 > 100 µM | MOLT-4 > 100 µM | SR > 100 µM | EKVX 95.1 µM | UACC-257 > 100 µM | UO-31 > 100 µM | OVCAR-5 > 100 µM | SF-268 > 100 µM | OVCAR-8 > 100 µM | CAKI-1 > 100 µM | MDA-N > 100 µM | HOP-62 > 100 µM | HT-29 > 100 µM | MDA-MB-231 > 100 µM | T47D > 100 µM | NCI-H23 > 100 µM | HL-60 > 100 µM | PC-3 > 100 µM | SK-MEL-5 > 100 µM | SF-295 > 100 µM | SNB-19 > 100 µM
> 100 µM: HCT-15

COc1cc(C2C(Cl)C(=O)N2NC(=O)c2ccc(NC(C)=O)cc2OC)ccc1O (stereo not drawn)
active: SF-295 < 0.01 µM
19.5 µM: HCT-15
inactive: A498 19.4 µM | OVCAR-3 21.4 µM | HOP-92 16 µM | ACHN 23.3 µM | DU-145 21.3 µM | SK-MEL-28 28.7 µM | Malme-3M 24.4 µM | M14 16.3 µM | COLO 205 14.9 µM | MCF7 19.3 µM | NCI/ADR-RES 37.5 µM | 786-0 15.1 µM | IGROV-1 17.5 µM | SN12C 17.9 µM | OVCAR-4 39.1 µM | LOX IMVI 7.28 µM | SW-620 24.7 µM | NCI-H522 8.45 µM | A549 32.1 µM | HCT-116 16.9 µM | BT-549 17.3 µM | MDA-MB-435 28 µM | SF-539 19.1 µM | UACC-62 18.1 µM | RXF 393 20.6 µM | RPMI-8226 1.94 µM | SK-OV-3 63.1 µM | KM12 20.4 µM | SK-MEL-2 14.5 µM | K562 18.1 µM | CCRF-CEM 2.64 µM | SNB-75 29.4 µM | MOLT-4 3.96 µM | SR 7.29 µM | EKVX 13.6 µM | UO-31 25.1 µM | OVCAR-5 13.2 µM | SF-268 21.8 µM | OVCAR-8 22.2 µM | CAKI-1 31.1 µM | MDA-N 20 µM | NCI-H226 10.6 µM | HT-29 15.1 µM | T47D 20.9 µM | NCI-H23 17.7 µM | HL-60 20.3 µM | PC-3 19.4 µM | SK-MEL-5 15.2 µM | SNB-19 17.4 µM
